Consider 30 compounds from patent US10758534B2 (Vertex Pharmaceuticals Incorporated, priority 2014, dated 2020).

Each structure is given as a SMILES string. Read-outs that look alike come from different tables or passages of the source.

The experiment concerns the target T1, F508del (Homo sapiens, UniProt P13569, DEL508-508).
T1 construct: expressed in transfected cells
Briefly: Protocol 2: FRET membrane potential optical assay (VIPR), identification of correction compounds. The experiment is classed as cell-based. An outline of the steps: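 NIH3T3 mouse fibroblasts stably expressing F508del-CFTR incubated with compound 16 h at 37 °C in serum-free medium, then loaded with CC2-DMPE/DiSBAC2(3) FRET dyes. Channel activated with 10 μM forskolin plus 20 μM genistein in Cl⁻-free (gluconate) bath; depolarisation from Cl⁻ efflux read on VIPR II.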

Setting [1] is: F508del CFTR modulator activity, compounds of Table 1, read-out: EC30.
[2] abbreviates: Table 3, compounds of Table 1 as modulators of CFTR activity, protocol not stated.

T1 sequence (P13569 with tags, fused parts or gaps DEL508-508): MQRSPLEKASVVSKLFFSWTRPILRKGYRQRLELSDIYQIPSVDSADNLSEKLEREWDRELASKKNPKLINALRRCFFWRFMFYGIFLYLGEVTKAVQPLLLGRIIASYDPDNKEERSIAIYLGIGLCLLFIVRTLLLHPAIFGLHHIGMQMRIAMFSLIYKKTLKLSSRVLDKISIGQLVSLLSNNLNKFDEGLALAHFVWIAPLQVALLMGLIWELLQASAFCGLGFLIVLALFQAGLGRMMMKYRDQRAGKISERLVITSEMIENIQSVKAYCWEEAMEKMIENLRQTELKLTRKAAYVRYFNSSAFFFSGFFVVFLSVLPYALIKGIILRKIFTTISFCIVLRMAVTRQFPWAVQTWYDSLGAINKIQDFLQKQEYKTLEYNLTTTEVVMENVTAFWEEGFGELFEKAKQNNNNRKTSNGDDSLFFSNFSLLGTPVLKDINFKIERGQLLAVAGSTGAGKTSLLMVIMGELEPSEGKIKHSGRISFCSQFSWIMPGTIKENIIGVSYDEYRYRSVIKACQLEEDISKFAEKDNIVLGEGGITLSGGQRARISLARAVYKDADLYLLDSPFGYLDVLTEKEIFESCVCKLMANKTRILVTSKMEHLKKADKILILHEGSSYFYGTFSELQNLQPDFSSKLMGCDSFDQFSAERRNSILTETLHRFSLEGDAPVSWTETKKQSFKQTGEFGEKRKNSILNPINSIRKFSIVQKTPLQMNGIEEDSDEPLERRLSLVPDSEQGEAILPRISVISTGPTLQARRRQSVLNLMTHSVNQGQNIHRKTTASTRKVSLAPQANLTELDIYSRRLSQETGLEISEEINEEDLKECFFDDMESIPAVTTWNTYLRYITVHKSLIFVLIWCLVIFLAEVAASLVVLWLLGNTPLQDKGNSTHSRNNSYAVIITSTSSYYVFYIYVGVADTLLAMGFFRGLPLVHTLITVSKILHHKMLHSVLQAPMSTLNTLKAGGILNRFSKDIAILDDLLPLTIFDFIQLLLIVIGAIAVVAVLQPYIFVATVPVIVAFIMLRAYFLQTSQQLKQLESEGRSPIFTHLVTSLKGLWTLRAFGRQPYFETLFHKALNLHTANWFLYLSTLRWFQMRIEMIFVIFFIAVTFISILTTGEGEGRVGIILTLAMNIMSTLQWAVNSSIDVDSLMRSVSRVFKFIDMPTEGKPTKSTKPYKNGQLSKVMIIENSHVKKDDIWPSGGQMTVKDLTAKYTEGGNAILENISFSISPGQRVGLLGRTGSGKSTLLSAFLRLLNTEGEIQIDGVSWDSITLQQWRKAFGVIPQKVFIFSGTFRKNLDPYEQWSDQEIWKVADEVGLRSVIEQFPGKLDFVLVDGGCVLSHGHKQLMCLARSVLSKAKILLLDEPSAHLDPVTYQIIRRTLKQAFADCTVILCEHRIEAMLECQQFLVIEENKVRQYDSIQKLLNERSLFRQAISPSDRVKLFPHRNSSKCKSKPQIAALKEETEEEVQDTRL

On to `CC(C)COc1cc(F)cc(-c2ccc(C(=O)NS(=O)(=O)c3cccc(N)n3)c(N3CC4CC(C3)C4C)n2)c1` (stereo not drawn) [Compound 2224, N-[(6-amino-2-pyridyl)sulfonyl]-6-(3-fluoro-5-isobutoxy-phenyl)-2-(6-methyl-3-azabicyclo[3.1.1]heptan-3-yl)pyridine-3-carboxamide], for which, under setting [1], the EC30 – broadly, the point of the concentration-response curve where the effect stands at 30% – was less than 3000 nM.

Regarding `COc1ccc(S(=O)(=O)NC(=O)C2c3ccccc3CN2Cc2c(C)cc(C)cc2C)cn1` (stereo not drawn) [Compound 200, N-[(6-methoxy-3-pyridyl)sulfonyl]-2-[(2,4,6-trimethylphenyl)methyl]isoindoline-1-carboxamide], under setting [2], the EC30 entry is “++ (“++” means between 3 uM and 10 uM)”.

`CC1CN(c2ncccc2C(=O)NS(=O)(=O)c2cccc(OCc3cccc4c3OCO4)n2)C(C)(C)C1` (stereo not drawn) [Compound 2249, N—[[6-(1,3-benzodioxol-4-ylmethoxy)-2-pyridyl]sulfonyl]-2-(2,2,4-trimethylpyrrolidin-1-yl)pyridine-3-carboxamide]: under setting [1], the EC30 is less than 3000 nM.

Take `Cc1cc(C)c(Oc2nn(C(C)(C)C)cc2C(=O)NS(=O)(=O)c2cccc(N)c2)c(C)c1` [Compound 325, N-(3-aminophenyl)sulfonyl-1-tert-butyl-3-(2,4,6-trimethylphenoxy)pyrazole-4-carboxamide]: the EC30 entry under setting [2] is on record as “+++ (“+++” means <3 uM)”.

Consider `CC(C)Oc1ccc(-c2ccc(C(=O)NS(=O)(=O)c3cccc(N)n3)c(N(C)CC3CC3)n2)cn1` [Compound 740, N-[(6-amino-2-pyridyl)sulfonyl]-2-[cyclopropylmethyl(methyl)amino]-6-(6-isopropoxy-3-pyridyl)pyridine-3-carboxamide], for which the EC30 entry under setting [2] was “++ (“++” means between 3 uM and 10 uM)”.

Take `CC(C)COc1cc(F)cc(-c2ccc(C(=O)NS(=O)(=O)c3cccc(N)n3)c(N3CCC[C@H]3C)n2)c1` [Compound 694, N-[(6-amino-2-pyridyl)sulfonyl]-6-(3-fluoro-5-isobutoxy-phenyl)-2-[(2R)-2-methylpyrrolidin-1-yl]pyridine-3-carboxamide]: under setting [2], the EC30 entry was “+++ (“+++” means <3 uM)”.

As to `C[C@@H]1CN(c2nc(C3=CC4CCC3C4)ccc2C(=O)NS(=O)(=O)c2cccc(N)n2)C(C)(C)C1` (stereo partly drawn) [Compound 2703], the EC30 was less than 3000 nM.

Take `CC1CN(c2ncccc2C(=O)NS(=O)(=O)c2cccc(OCc3ccc(Cl)cc3)n2)C(C)(C)C1` (stereo not drawn) [Compound 2585, N—[[6-[(4-chlorophenyl)methoxy]-2-pyridyl]sulfonyl]-2-(2,2,4-trimethylpyrrolidin-1-yl)pyridine-3-carboxamide]: the EC30 under setting [1] is less than 3000 nM.

As to `COCCCc1ccc(C(=O)NS(=O)(=O)c2cccc(N)n2)c(Oc2c(C)cc(C)cc2C)n1` [Compound 791, N-[(6-amino-2-pyridyl)sulfonyl]-6-(3-methoxypropyl)-2-(2,4,6-trimethylphenoxy)pyridine-3-carboxamide], the EC30 result under setting [2] was “++ (“++” means between 3 uM and 10 uM)”.

With `C[C@@H]1CN(c2nc(-c3ccc(F)cc3F)ccc2C(=O)NS(=O)(=O)c2cccnc2N)C(C)(C)C1` [Compound 2447, N-[(2-amino-3-pyridyl)sulfonyl]-6-(2,4-difluorophenyl)-2-[(4S)-2,2,4-trimethylpyrrolidin-1-yl]pyridine-3-carboxamide], under setting [1], the EC30 was less than 3000 nM.

`Cc1cccc(C)c1Cn1nc(-c2ccc(OC(F)(F)F)cc2)cc1C(=O)NS(=O)(=O)c1ccccc1` [Compound 159, N-(benzenesulfonyl)-2-[(2,6-dimethylphenyl)methyl]-5-[4-(trifluoromethoxy)phenyl]pyrazole-3-carboxamide]: under setting [2], the EC30 entry is recorded as “+++ (“+++” means <3 uM)”.

For `Cc1cc(C)c(Oc2nc(C(C)(C)C)ccc2C(=O)NS(=O)(=O)c2cccc(O)c2)c(C)c1` [Compound 47, 6-tert-butyl-N-(3-hydroxyphenyl)sulfonyl-2-(2,4,6-trimethylphenoxy)pyridine-3-carboxamide], the EC30 result under setting [2] is reported as “+++ (“+++” means <3 uM)”.

`CC(C)COc1cc(F)cc(-c2nc(N3C[C@@H](C)CC3(C)C)c(C(=O)NS(=O)(=O)c3cccc(N)n3)cc2I)c1` [Compound 2009, N-[(6-amino-2-pyridyl)sulfonyl]-6-(3-fluoro-5-isobutoxy-phenyl)-5-iodo-2-[(4S)-2,2,4-trimethylpyrrolidin-1-yl]pyridine-3-carboxamide]: the EC30 under setting [1] was less than 3000 nM.

As for `Cc1ccc(-c2ccc(C(=O)NS(=O)(=O)c3cc[nH]n3)c(Oc3c(C)cc(C)cc3C)n2)cc1` [Compound 300, 6-(p-tolyl)-N-(1H-pyrazol-3-ylsulfonyl)-2-(2,4,6-trimethylphenoxy)pyridine-3-carboxamide], the EC30 result under setting [2] is reported as “+++ (“+++” means <3 uM)”.

Regarding `CC(C)Oc1ccc(-c2ccc(C(=O)NS(=O)(=O)c3ccn[nH]3)c(N3CCC[C@@H](c4ccccc4)C3)n2)cn1` [Compound 776, 6-(6-isopropoxy-3-pyridyl)-2-[(3S)-3-phenyl-1-piperidyl]-N-(1H-pyrazol-5-ylsulfonyl)pyridine-3-carboxamide], the EC30 result under setting [2] is listed as “+++ (“+++” means <3 uM)”.

On to `Cc1cc(C)c(Oc2nc3ccccc3cc2C(=O)NS(=O)(=O)c2ccncc2)c(C)c1` [Compound 240, N-(4-pyridylsulfonyl)-2-(2,4,6-trimethylphenoxy)quinoline-3-carboxamide], for which, under setting [2], the EC30 entry was “++ (“++” means between 3 uM and 10 uM)”.

In the case of `CC(C)CNc1cc(-c2ccc(C(=O)NS(=O)(=O)c3cccc(N)n3)c(N3CC(C)CC3(C)C)n2)ccn1` (stereo not drawn) [Compound 523, N-[(6-amino-2-pyridyl)sulfonyl]-6-[2-(isobutylamino)-4-pyridyl]-2-(2,2,4-trimethylpyrrolidin-1-yl)pyridine-3-carboxamide], the EC30 entry under setting [2] is “+++ (“+++” means <3 uM)”.

For `CC(C)c1ccccc1Oc1nc(C(C)(C)C)ccc1C(=O)NS(=O)(=O)c1ccccc1` [Compound 147, N-(benzenesulfonyl)-6-tert-butyl-2-(2-isopropylphenoxy)pyridine-3-carboxamide], the EC30 entry under setting [2] is reported as “+++ (“+++” means <3 uM)”.

For `CC(C)(C)c1ccc(C(=O)NS(=O)(=O)c2ccc(N)cc2)c(N2CCCCC2)n1` [Compound 753, N-(4-aminophenyl)sulfonyl-6-tert-butyl-2-(1-piperidyl)pyridine-3-carboxamide], the EC30 entry under setting [2] is “++ (“++” means between 3 uM and 10 uM)”.

For the compound `Cc1cc(C)c(Oc2nc(-c3ccc(C(F)(F)F)cc3)ccc2C(=O)NS(=O)(=O)c2cccc(N)n2)c(C)c1` [Compound 548, N-[(6-amino-2-pyridyl)sulfonyl]-6-[4-(trifluoromethyl)phenyl]-2-(2,4,6-trimethylphenoxy)pyridine-3-carboxamide], the EC30 result under setting [2] is on record as “+++ (“+++” means <3 uM)”.

In the case of `COc1ccc(-c2ccc(C(=O)NS(=O)(=O)c3cccnc3N)c(N3C[C@@H](C)CC3(C)C)n2)cn1` [Compound 2244, N-[(2-amino-3-pyridyl)sulfonyl]-6-(6-methoxy-3-pyridyl)-2-[(4S)-2,2,4-trimethylpyrrolidin-1-yl]pyridine-3-carboxamide], the EC30 under setting [1] was less than 3000 nM.

As to `Cc1cc(C)c(Oc2nc(C(C)(C)C)ccc2C(=O)NS(=O)(=O)c2cccc(C(F)F)n2)c(C)c1` [Compound 501, 6-tert-butyl-N-[[6-(difluoromethyl)-2-pyridyl]sulfonyl]-2-(2,4,6-trimethylphenoxy)pyridine-3-carboxamide], under setting [2], the EC30 entry was “+++ (“+++” means <3 uM)”.

As to `CC1CN(c2ncccc2C(=O)NS(=O)(=O)c2cccc(Nc3ccc(Cl)cn3)n2)C(C)(C)C1` (stereo not drawn) [Compound 2656, N—[[6-[(5-chloro-2-pyridyl)amino]-2-pyridyl]sulfonyl]-2-(2,2,4-trimethylpyrrolidin-1-yl)pyridine-3-carboxamide], the EC30 under setting [1] is less than 3000 nM.

Take `CC1CN(c2ncc(-c3ccc(OC(F)(F)F)cc3)cc2C(=O)NS(=O)(=O)c2cccc(N)n2)C(C)(C)C1` (stereo not drawn) [Compound 2649, N-[(6-amino-2-pyridyl)sulfonyl]-5-[4-(trifluoromethoxy)phenyl]-2-(2,2,4-trimethylpyrrolidin-1-yl)pyridine-3-carboxamide]: the EC30 under setting [1] is less than 3000 nM.

With `Cc1cc(C)c(Cn2nc(C(C)(C)C)cc2C(=O)NS(=O)(=O)c2cccc(N(C)C)c2)c(C)c1` [Compound 270, 5-tert-butyl-N-[3-(dimethylamino)phenyl]sulfonyl-2-[(2,4,6-trimethylphenyl)methyl]pyrazole-3-carboxamide], under setting [2], the EC30 entry was “+++ (“+++” means <3 uM)”.

As to `CCCOc1cccc(S(=O)(=O)NC(=O)c2cccnc2N2CC(C)CC2(C)C)n1` (stereo not drawn) [Compound 2528, N-[(6-propoxy-2-pyridyl)sulfonyl]-2-(2,2,4-trimethylpyrrolidin-1-yl)pyridine-3-carboxamide], under setting [1], the EC30 is less than 3000 nM.

On to `Cc1cc(C)c(Oc2nc3c(cc2C(=O)NS(=O)(=O)c2cccc(N)n2)CCCC3)c(C)c1` [Compound 285, N-[(6-amino-2-pyridyl)sulfonyl]-2-(2,4,6-trimethylphenoxy)-5,6,7,8-tetrahydroquinoline-3-carboxamide], for which the EC30 entry under setting [2] is given as “+++ (“+++” means <3 uM)”.

With `C[C@@H]1CN(c2nc(-c3ccc4[nH]ccc4c3)ccc2C(=O)NS(=O)(=O)c2cccnc2N)C(C)(C)C1` [Compound 2125, N-[(2-amino-3-pyridyl)sulfonyl]-6-(1H-indol-5-yl)-2-[(4S)-2,2,4-trimethylpyrrolidin-1-yl]pyridine-3-carboxamide], under setting [1], the EC30 was less than 3000 nM.

`CC1CN(c2ncccc2C(=O)NS(=O)(=O)c2cccc(N3CCN(Cc4ccncc4)CC3)n2)C(C)(C)C1` (stereo not drawn) [Compound 2175, N—[[6-[4-(4-pyridylmethyl)piperazin-1-yl]-2-pyridyl]sulfonyl]-2-(2,2,4-trimethylpyrrolidin-1-yl)pyridine-3-carboxamide]: under setting [1], the EC30 lay in the range of 3000 to 10000 nM.

Turning to `CC1CN(c2ncc(-c3ccc(C4(CO)CC4)cc3)cc2C(=O)NS(=O)(=O)c2cccc(N)n2)C(C)(C)C1` (stereo not drawn) [Compound 2112, N-[(6-amino-2-pyridyl)sulfonyl]-5-[4-[1-(hydroxymethyl)cyclopropyl]phenyl]-2-(2,2,4-trimethylpyrrolidin-1-yl)pyridine-3-carboxamide], the EC30 under setting [1] fell in the range of 3000 to 10000 nM.
